These are literature values, as cited in PMC8155967, “Investigating the Potential of Transdermal Delivery of Avanafil Using Vitamin E-TPGS Based Mixed Micelles Loaded Films” (Pharmaceutics, 2021).

Values after ≈ are worked out from the molar mass of the structure shown.

For `COc1ccc(CN=c2[nH]c(N3CCC[C@H]3CO)ncc2C(=O)NCc2ncccn2)cc1Cl` [AVA, Avanafil], the partition coefficient was 2.78 and the solubility in water is 30 µg/mL (≈ 62 µM).
